Results reported in patent US12077503B2, “Substituted cyclic amides and their use as herbicides” (FMC CORPORATION, priority 2015, dated 2024).

Key:
Assay type in all cases: in vivo
[1] = test system: Galium (catchweed bedstraw, Galium aparine); experiment: Test A postemergence; details: Galium, post-emergence, 240 h
Procedure, shortened: (§1)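 In a loam soil and sand blend, planted seeds got a preemergence directed soil spray, and young plants at the one- to two-leaf stage, 2–10 cm high, got a postemergence application; ~10 d greenhouse hold; injury rated visually, 0 = none, 100 = complete control.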

[2] = test system: pigweed (Amaranthus retroflexus); experiment: Test A postemergence; details: Amaranthus retroflexus, post-emergence, 240 h
Procedure, shortened: as §1

[3] = test system: ryegrass, Italian (Italian ryegrass, Lolium multiflorum); experiment: Test A postemergence; details: Lolium multiflorum, post-emergence, 240 h
Procedure, shortened: as §1

[4] = test system: corn (Zea mays); experiment: Test A postemergence; details: Zea mays, post-emergence, 240 h
Procedure, shortened: as §1

[5] = test system: ragweed (common ragweed, Ambrosia elatior); experiment: Test A postemergence; details: Ambrosia artemisiifolia, post-emergence, 240 h
Procedure, shortened: as §1

[6] = test system: barnyardgrass (Echinochloa crus-galli); experiment: Test A postemergence; details: Echinochloa crus-galli, post-emergence, 240 h
Procedure, shortened: as §1

[7] = test system: giant foxtail (Setaria faberii); experiment: Test A postemergence; details: Setaria faberi, post-emergence, 240 h
Procedure, shortened: as §1

[8] = test system: wheat (Triticum aestivum); experiment: Test A postemergence; details: Triticum aestivum, post-emergence, 240 h
Procedure, shortened: as §1

[9] = test system: Kochia (Kochia scoparia); experiment: Test A postemergence; details: Bassia scoparia, post-emergence, 240 h
Procedure, shortened: as §1

[10] = test system: blackgrass (Alopecurus myosuroides); experiment: Test A postemergence; details: Alopecurus myosuroides, post-emergence, 240 h
Procedure, shortened: as §1

[11] = test system: sedge, umbrella (small-flower umbrella sedge, Cyperus difformis); experiment: Test B flooded paddy test; details: Cyperus difformis, 250 g ai/ha, Flood; 0 to 100 scale where 0 is no effect and 100 is complete control; read-out: Sedge, Umbrella plant response rating
Procedure, shortened: (§2)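 Plants at 2-leaf stage flooded to 3 cm above soil, with compounds applied directly to paddy water and that depth maintained. Plants kept in greenhouse 13–15 d. Visual rating versus controls on a 0 (no effect) to 100 (complete control) scale.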

[12] = test system: ducksalad (Heteranthera limosa); experiment: Test B flooded paddy test; details: Heteranthera limosa, 250 g ai/ha, Flood; 0 to 100 scale where 0 is no effect and 100 is complete control; read-out: Ducksalad plant response rating
Procedure, shortened: as §2

[13] = test system: barnyardgrass (Echinochloa crus-galli); experiment: Test B flooded paddy test; details: Echinochloa crus-galli, 250 g ai/ha, Flood; 0 to 100 scale where 0 is no effect and 100 is complete control; read-out: Barnyardgrass plant response rating
Procedure, shortened: as §2

[14] = test system: rice (Oryra sativa); experiment: Test B flooded paddy test; details: Oryza sativa, 250 g ai/ha, Flood; 0 to 100 scale where 0 is no effect and 100 is complete control; read-out: Rice plant response rating
Procedure, shortened: as §2

[15] = test system: pigweed (Amaranthus retroflexus); experiment: Test A preemergence; details: Amaranthus retroflexus, pre-emergence, 240 h, Preemergence
[16] = test system: ryegrass, Italian (Italian ryegrass, Lolium multiflorum); experiment: Test A preemergence; details: Lolium multiflorum, pre-emergence, 240 h, Preemergence
Procedure, shortened: as §1

[17] = test system: ragweed (common ragweed, Ambrosia elatior); experiment: Test A preemergence; details: Ambrosia artemisiifolia, pre-emergence, 240 h, Preemergence
Procedure, shortened: as §1

[18] = test system: barnyardgrass (Echinochloa crus-galli); experiment: Test A preemergence; details: Echinochloa crus-galli, pre-emergence, 240 h, Preemergence
Procedure, shortened: as §1

[19] = test system: giant foxtail (Setaria faberii); experiment: Test A preemergence; details: Setaria faberi, pre-emergence, 240 h, Preemergence
Procedure, shortened: as §1

[20] = test system: Kochia (Kochia scoparia); experiment: Test A preemergence; details: Bassia scoparia, pre-emergence, 240 h, Preemergence
Procedure, shortened: as §1

SMILES: CN1C[C@H](c2ccc(C(F)(F)F)cn2)[C@@H](C(=O)Nc2cccc(F)c2F)C1=O [Compound 1052]
- pest or weed control at 125 g/ha ([1]; 125 g ai/ha, postemergence, visual injury on 0 to 100 scale (0 no effect, 100 complete control), approx. 10 d, read-out: Galium plant response rating): 70%
- pest or weed control at 31 g/ha ([1]; Postemergence, 31 g ai/ha, visual injury after approx. 10 d, 0 to 100 scale, 0 no effect, 100 complete control, read-out: Plant response rating, Galium): 40%
- pest or weed control at 125 g/ha ([2]; 125 g ai/ha, postemergence, visual injury on 0 to 100 scale (0 no effect, 100 complete control), approx. 10 d, read-out: Pigweed plant response rating): 30%
- pest or weed control at 31 g/ha ([2]; Postemergence, 31 g ai/ha, visual injury after approx. 10 d, 0 to 100 scale, 0 no effect, 100 complete control, read-out: Plant response rating, Pigweed): 0%
- pest or weed control at 125 g/ha ([3]; 125 g ai/ha, postemergence, visual injury on 0 to 100 scale (0 no effect, 100 complete control), approx. 10 d, read-out: Ryegrass, Italian plant response rating): 20%
- pest or weed control at 31 g/ha ([3]; Postemergence, 31 g ai/ha, visual injury after approx. 10 d, 0 to 100 scale, 0 no effect, 100 complete control, read-out: Plant response rating, Ryegrass, Italian): 0%
- plant injury at 125 g/ha ([4]; 125 g ai/ha, postemergence, visual injury on 0 to 100 scale (0 no effect, 100 complete control), approx. 10 d, read-out: Corn plant response rating): 0%
- Corn plant response rating (crop injury, 0 = no effect, 100 = complete kill) at 31 g/ha ([4]; Postemergence, 31 g ai/ha, visual injury after approx. 10 d, 0 to 100 scale, 0 no effect, 100 complete control): 0%
- pest or weed control at 125 g/ha ([5]; 125 g ai/ha, postemergence, visual injury on 0 to 100 scale (0 no effect, 100 complete control), approx. 10 d, read-out: Ragweed plant response rating): 30%
- pest or weed control at 31 g/ha ([5]; Postemergence, 31 g ai/ha, visual injury after approx. 10 d, 0 to 100 scale, 0 no effect, 100 complete control, read-out: Plant response rating, Ragweed): 0%
- pest or weed control at 125 g/ha ([6]; 125 g ai/ha, postemergence, visual injury on 0 to 100 scale (0 no effect, 100 complete control), approx. 10 d, read-out: Barnyardgrass plant response rating): 80%
- pest or weed control at 31 g/ha ([6]; Postemergence, 31 g ai/ha, visual injury after approx. 10 d, 0 to 100 scale, 0 no effect, 100 complete control, read-out: Plant response rating, Barnyardgrass): 30%
- pest or weed control at 125 g/ha ([7]; 125 g ai/ha, postemergence, visual injury on 0 to 100 scale (0 no effect, 100 complete control), approx. 10 d, read-out: Foxtail, Giant plant response rating): 70%
- pest or weed control at 31 g/ha ([7]; Postemergence, 31 g ai/ha, visual injury after approx. 10 d, 0 to 100 scale, 0 no effect, 100 complete control, read-out: Plant response rating, Foxtail, Giant): 30%
- plant injury at 125 g/ha ([8]; 125 g ai/ha, postemergence, visual injury on 0 to 100 scale (0 no effect, 100 complete control), approx. 10 d, read-out: Wheat plant response rating): 0%
- plant injury at 31 g/ha ([8]; Postemergence, 31 g ai/ha, visual injury after approx. 10 d, 0 to 100 scale, 0 no effect, 100 complete control, read-out: Plant response rating, Wheat): 0%
- pest or weed control at 125 g/ha ([9]; 125 g ai/ha, postemergence, visual injury on 0 to 100 scale (0 no effect, 100 complete control), approx. 10 d, read-out: Kochia plant response rating): 40%
- pest or weed control at 31 g/ha ([9]; Postemergence, 31 g ai/ha, visual injury after approx. 10 d, 0 to 100 scale, 0 no effect, 100 complete control, read-out: Plant response rating, Kochia): 0%
- pest or weed control at 125 g/ha ([10]; 125 g ai/ha, postemergence, visual injury on 0 to 100 scale (0 no effect, 100 complete control), approx. 10 d, read-out: Blackgrass plant response rating): 20%
- pest or weed control at 31 g/ha ([10]; Postemergence, 31 g ai/ha, visual injury after approx. 10 d, 0 to 100 scale, 0 no effect, 100 complete control, read-out: Plant response rating, Blackgrass): 0%
- pest or weed control at 250 g/ha [11]: 0%
- pest or weed control at 250 g/ha [12]: 100%
- pest or weed control at 250 g/ha [13]: 85%
- pest or weed control at 250 g/ha [14]: 0%
- pest or weed control at 31 g/ha ([15]; 31 g ai/ha, 0 to 100 scale where 0 is no effect and 100 is complete control, read-out: Pigweed plant response rating): 40%
- pest or weed control at 125 g/ha ([15]; 125 g ai/ha, visual injury rating after approximately 10 d, read-out: Pigweed plant response rating (0 to 100 scale, 0 is no effect, 100 is complete control)): 80%
- pest or weed control at 31 g/ha ([16]; 31 g ai/ha, 0 to 100 scale where 0 is no effect and 100 is complete control, read-out: Ryegrass, Italian plant response rating): 0%
- pest or weed control at 125 g/ha ([16]; 125 g ai/ha, visual injury rating after approximately 10 d, read-out: Ryegrass, Italian plant response rating (0 to 100 scale, 0 is no effect, 100 is complete control)): 30%
- pest or weed control at 31 g/ha ([17]; 31 g ai/ha, 0 to 100 scale where 0 is no effect and 100 is complete control, read-out: Ragweed plant response rating): 0%
- pest or weed control at 125 g/ha ([17]; 125 g ai/ha, visual injury rating after approximately 10 d, read-out: Ragweed plant response rating (0 to 100 scale, 0 is no effect, 100 is complete control)): 20%
- pest or weed control at 125 g/ha ([18]; 125 g ai/ha, visual injury rating after approximately 10 d, read-out: Barnyardgrass plant response rating (0 to 100 scale, 0 is no effect, 100 is complete control)): 90%
- pest or weed control at 31 g/ha ([18]; 31 g ai/ha, 0 to 100 scale (0 no effect, 100 complete control), read-out: Plant response rating, Barnyardgrass): 30%
- pest or weed control at 125 g/ha ([19]; 125 g ai/ha, visual injury rating after approximately 10 d, read-out: Foxtail, Giant plant response rating (0 to 100 scale, 0 is no effect, 100 is complete control)): 90%
- pest or weed control at 31 g/ha ([19]; 31 g ai/ha, 0 to 100 scale (0 no effect, 100 complete control), read-out: Plant response rating, Foxtail, Giant): 80%
- pest or weed control at 31 g/ha ([20]; 31 g ai/ha, 0 to 100 scale where 0 is no effect and 100 is complete control, read-out: Kochia plant response rating): 20%
- pest or weed control at 125 g/ha ([20]; 125 g ai/ha, visual injury rating after approximately 10 d, read-out: Kochia plant response rating (0 to 100 scale, 0 is no effect, 100 is complete control)): 70%
